# Measurements reported in PubChem BioAssay AID2060489 (Molecular Pharmacology Branch, DTP, NCI, 2025).
# Test system: 922993-354-T-J3-PDC complex spheroids, viability
# Experiment: Anticancer human tumor 922993-354-T-J3-PDC patient-derived endometrial carcinoma cell line growth inhibition [GQUAD]
# Conditions: for IC50: curve of first compound; for viability, T/C: stronger effect = lower value
# In short: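 Viability of tumor cells grown as complex spheroids with endothelial and stromal cells, exposed to drug combinations. Top concentration at or near clinical Cmax (else 10 microM), diluted in half-log increments.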
# [1] = second compound 0.0316 µM, first compound 0.0316 µM
# [2] = second compound 0.0316 µM, first compound 0.1 µM
# [3] = second compound 0.0316 µM, first compound 0.316 µM
# [4] = second compound 0.0316 µM, first compound 1 µM
# [5] = second compound 0.0316 µM, first compound 3.16 µM
# [6] = second compound 0.0316 µM, first compound 10 µM
# [7] = second compound 0.1 µM, first compound 0.0316 µM
# [8] = second compound 0.1 µM, first compound 0.1 µM
# [9] = second compound 0.1 µM, first compound 0.316 µM
# [10] = second compound 0.1 µM, first compound 1 µM
# [11] = second compound 0.1 µM, first compound 3.16 µM
# [12] = second compound 0.1 µM, first compound 10 µM
# [13] = second compound 0.316 µM, first compound 0.0316 µM
# [14] = second compound 0.316 µM, first compound 0.1 µM
# [15] = second compound 0.316 µM, first compound 0.316 µM
# [16] = second compound 0.316 µM, first compound 1 µM
# [17] = second compound 0.316 µM, first compound 3.16 µM
# [18] = second compound 0.316 µM, first compound 10 µM
# [19] = second compound 1 µM, first compound 0.0316 µM
# [20] = second compound 1 µM, first compound 0.1 µM
# [21] = second compound 1 µM, first compound 0.316 µM
# [22] = second compound 1 µM, first compound 1 µM
# [23] = second compound 1 µM, first compound 3.16 µM
# [24] = second compound 1 µM, first compound 10 µM
# [25] = second compound 3.16 µM, first compound 0.0316 µM
# [26] = second compound 3.16 µM, first compound 0.1 µM
# [27] = second compound 3.16 µM, first compound 0.316 µM
# [28] = second compound 3.16 µM, first compound 1 µM
# [29] = second compound 3.16 µM, first compound 3.16 µM
# [30] = second compound 3.16 µM, first compound 10 µM
# [31] = second compound 10 µM, first compound 0.0316 µM
# [32] = second compound 10 µM, first compound 0.1 µM
# [33] = second compound 10 µM, first compound 0.316 µM
# [34] = second compound 10 µM, first compound 1 µM
# [35] = second compound 10 µM, first compound 3.16 µM
# [36] = second compound 10 µM, first compound 10 µM
# 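Also: spheroids exposed to compounds for seven days.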
# 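For viability, T/C in this document: 100% = DMSO vehicle control viability.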
compound,measurement,setting,value
C=CCn1c(=O)c2cnc(Nc3ccc(N4CCN(C)CC4)cc3)nc2n1-c1cccc(C(C)(C)O)n1 + Cc1cnc(CNC(=O)c2c(=O)c3ccc(N4CCCN(C)CC4)nc3n3c2sc2ccccc23)cn1,IC50,second compound 0.0316 µM,2610 nM
same,IC50,second compound 0.1 µM,1060 nM
same,IC50,second compound 0.316 µM,< 31.6 nM
same,IC50,second compound 1 µM,< 31.6 nM
same,IC50,second compound 3.16 µM,828 nM
same,IC50,second compound 10 µM,< 31.6 nM
same,"viability, T/C",[1],92.1%
same,"viability, T/C",[2],70.7%
same,"viability, T/C",[3],81.6%
same,"viability, T/C",[4],78.6%
same,"viability, T/C",[5],44.3%
same,"viability, T/C",[6],28.4%
same,"viability, T/C",[7],69.1%
same,"viability, T/C",[8],60%
same,"viability, T/C",[9],55.6%
same,"viability, T/C",[10],51.5%
same,"viability, T/C",[11],23.1%
same,"viability, T/C",[12],25%
same,"viability, T/C",[13],50.9%
same,"viability, T/C",[14],42%
same,"viability, T/C",[15],32.1%
same,"viability, T/C",[16],36.4%
same,"viability, T/C",[17],41.3%
same,"viability, T/C",[18],33.8%
same,"viability, T/C",[19],42.8%
same,"viability, T/C",[20],49.4%
same,"viability, T/C",[21],39.2%
same,"viability, T/C",[22],39.4%
same,"viability, T/C",[23],47.5%
same,"viability, T/C",[24],44.1%
same,"viability, T/C",[25],56%
same,"viability, T/C",[26],49.9%
same,"viability, T/C",[27],49.5%
same,"viability, T/C",[28],41.4%
same,"viability, T/C",[29],50.5%
same,"viability, T/C",[30],53.8%
same,"viability, T/C",[31],47.7%
same,"viability, T/C",[32],36%
same,"viability, T/C",[33],45.7%
same,"viability, T/C",[34],40.8%
same,"viability, T/C",[35],40.9%
same,"viability, T/C",[36],39.1%
CC(C)(O)C1CCC(Nc2ccc3ncc(-c4cccc(C(F)(F)F)c4)n3n2)CC1 (stereo unspecified) + Cc1cnc(CNC(=O)c2c(=O)c3ccc(N4CCCN(C)CC4)nc3n3c2sc2ccccc23)cn1,IC50,second compound 0.0316 µM,> 10000 nM
same,IC50,second compound 0.1 µM,> 10000 nM
same,IC50,second compound 0.316 µM,31.6 nM
same,IC50,second compound 1 µM,< 31.6 nM
same,IC50,second compound 3.16 µM,< 31.6 nM
same,IC50,second compound 10 µM,< 31.6 nM
same,"viability, T/C",[1],89.5%
same,"viability, T/C",[2],97.4%
same,"viability, T/C",[3],67.9%
same,"viability, T/C",[4],90.6%
same,"viability, T/C",[5],105%
same,"viability, T/C",[6],84.1%
same,"viability, T/C",[7],69%
same,"viability, T/C",[8],71.9%
same,"viability, T/C",[9],51.2%
same,"viability, T/C",[10],59.6%
same,"viability, T/C",[11],65.8%
same,"viability, T/C",[12],67.6%
same,"viability, T/C",[13],48.6%
same,"viability, T/C",[14],58.8%
same,"viability, T/C",[15],48.4%
same,"viability, T/C",[16],47.5%
same,"viability, T/C",[17],65.9%
same,"viability, T/C",[18],58.2%
same,"viability, T/C",[19],47.8%
same,"viability, T/C",[20],51.8%
same,"viability, T/C",[21],40.4%
same,"viability, T/C",[22],53.1%
same,"viability, T/C",[23],57.4%
same,"viability, T/C",[24],54.8%
same,"viability, T/C",[25],40.7%
same,"viability, T/C",[26],43.9%
same,"viability, T/C",[27],38.8%
same,"viability, T/C",[28],47.4%
same,"viability, T/C",[29],41.4%
same,"viability, T/C",[30],37.5%
same,"viability, T/C",[31],36.7%
same,"viability, T/C",[32],47.4%
same,"viability, T/C",[33],31%
same,"viability, T/C",[34],18.5%
same,"viability, T/C",[35],9.55%
same,"viability, T/C",[36],4.71%
COc1ncnc(C2CC2)c1-c1ncc2cnn(Cc3ccc(-c4nc(C(F)(F)F)cn4C(C)C)cc3)c2n1 + Cc1cnc(CNC(=O)c2c(=O)c3ccc(N4CCCN(C)CC4)nc3n3c2sc2ccccc23)cn1,IC50,second compound 0.0316 µM,> 10000 nM
same,IC50,second compound 0.1 µM,> 10000 nM
same,IC50,second compound 0.316 µM,< 31.6 nM
same,IC50,second compound 1 µM,< 31.6 nM
same,IC50,second compound 3.16 µM,< 31.6 nM
same,IC50,second compound 10 µM,3230 nM
same,"viability, T/C",[1],98.1%
same,"viability, T/C",[2],72.7%
same,"viability, T/C",[3],80.5%
same,"viability, T/C",[4],48.3%
same,"viability, T/C",[5],59%
same,"viability, T/C",[6],63.4%
same,"viability, T/C",[7],67.8%
same,"viability, T/C",[8],44.2%
same,"viability, T/C",[9],45.6%
same,"viability, T/C",[10],44.3%
same,"viability, T/C",[11],51.4%
same,"viability, T/C",[12],70.4%
same,"viability, T/C",[13],41%
same,"viability, T/C",[14],34.5%
same,"viability, T/C",[15],41.8%
same,"viability, T/C",[16],49.3%
same,"viability, T/C",[17],51.3%
same,"viability, T/C",[18],52.7%
same,"viability, T/C",[19],44.5%
same,"viability, T/C",[20],44.6%
same,"viability, T/C",[21],41.6%
same,"viability, T/C",[22],46.3%
same,"viability, T/C",[23],54.9%
same,"viability, T/C",[24],67.1%
same,"viability, T/C",[25],40.9%
same,"viability, T/C",[26],41.7%
same,"viability, T/C",[27],50.3%
same,"viability, T/C",[28],49.2%
same,"viability, T/C",[29],43%
same,"viability, T/C",[30],55.7%
same,"viability, T/C",[31],48.6%
same,"viability, T/C",[32],47.7%
same,"viability, T/C",[33],52.6%
same,"viability, T/C",[34],49%
same,"viability, T/C",[35],53.3%
same,"viability, T/C",[36],40.1%
